What was measured:
[1] = Comparative experiment for the degradation of ethylene oxide (gas chromatography); conditions: Example 3
Description: The bacteria having a potential for degrading ethylene oxide which have not been subjected to the acclimatization steps and the strains capable of tolerating and degrading ethylene oxide obtained after the acclimatization steps were inoculated into activation medium, respectively, for activation, and cultured to a bacteria concentration of 10^10-10^12 cfu/mL in the culture.
The activation medium was made as follows: Peptone 10 g, filled with distilled water to 1000 mL which was distributed into 400 mL. Then, sterilization was performed at 121° C. for 20 min. Thereafter, the temperature of the medium was cooled down to RT for storage. 160 mg and 320 mg of ethylene oxide was added, respectively, by using a sealed syringe to obtain two activation media containing different concentrations (400 mg/L and 800 mg/L, respectively) of ethylene oxide for the test of degrading capability of the ethylene oxide-degrading strains.
Comparative experiment for the degradation of ethylene oxide was performed with the following test groups and control group.
Test group 1: 5 mL of an activation culture of the bacteria capable of tolerating and degrading ethylene oxide was inoculated into 400 mL of activation media containing 400 mg/L (1A) and 800 mg/L (1B), respectively, of ethylene oxide. The amount of live bacteria in the medium was 10^8-10^10 cfu/mL.
Test group 2: 5 mL of an activation culture of the bacteria having a potential for degrading ethylene oxide which have not been subjected to the acclimatization steps was inoculated into 400 mL of activation media containing 400 mg/L (2A) and 800 mg/L (2B), respectively, of ethylene oxide. The amount of live bacteria in the medium was 10^8-10^10 cfu/mL.
Control group: 400 mL of activation media containing 400 mg/L (control group A) and 800 mg/L (control group B), respectively, of ethylene oxide with no bacteria strain inoculated.
The test groups and control groups are placed together in an incubated for culturing at 37° C. for 48 h. […] The result of degradation was detected by gas chromatography. […]
the subject samples to be analyzed were prepared by diluting samples from the treatment and control groups 5 times with deionized water;
after the GC instrument is stabilized and under the same conditions, 2 μL each of the ethylene oxide standards and the diluted samples to be analyzed were injected into the GC instrument, wherein each sample was measured twice in parallel;
qualitive determination was conducted according to the retention time and quantitative calculation on each peak area was performed to take the average value; […]
the degradation rate of ethylene oxide for each sample was calculated according to the following formula: Degradation Rate (%)=(Control Group Concentration−Treatment Group Concentration)/Control Group Concentration×100. […]

[2] = Ethylene oxide degradation acclimatization: growth on 800 mg/L ethylene oxide plates with decreasing carbon source; design: key: + normal growth; ± low growth
Description: (§1) Ethylene oxide degradation acclimatization medium plates were made as follows: Peptone 10 g, glucose (20 g, 12 g, 4 g, and 0 g, respectively), agar 15 g, pH adjusted to 5.4-5.8, and filled with distilled water to 1000 mL which was distributed into 250 mL. Sterilization was then performed at 121° C. for 20 min. The medium was heated to melt before use. When the temperature of the medium was cooled down to 50-56° C., 200 mg of ethylene oxide was added by using a sealed injection needle to obtain four ethylene oxide degradation acclimatization medium plates containing different concentrations of carbon source (50%, 30%, 10%, 0%, respectively), named as ethylene oxide degradation acclimatization medium plate A, ethylene oxide degradation acclimatization medium plate B, ethylene oxide degradation acclimatization medium plate C, and ethylene oxide degradation acclimatization medium plate D, respectively.
(§2) The ethylene oxide-tolerant bacteria were streak-inoculated on Ethylene Oxide Degradation Acclimatization medium A, and cultured at a constant temperature of 37° C. for 48 h; a single colony having a largest radius was picked for further inoculation on Ethylene Oxide Degradation Acclimatization medium B, and cultured at a constant temperature of 37° C. for 48 h; a single colony having a largest radius was picked for further inoculation on Ethylene Oxide Degradation Acclimatization medium C, and cultured at a constant temperature of 37° C. for 48 h; a single colony having a largest radius was picked for further inoculation on Ethylene Oxide Degradation Acclimatization medium D, and cultured at a constant temperature of 37° C. for 48 h; a single colony having a largest radius was picked and preserved on an agar medium bevel containing corresponding nutritional components in Ethylene Oxide Degradation Acclimatization medium D, to obtain ethylene oxide-degrading strains. Growth situation of the strains on the ethylene oxide degradation acclimatization medium plates A, B, C, and D are as shown in Table 1.

[3] = Ethylene oxide tolerance acclimatization: growth on medium plates with increasing ethylene oxide; design: key: + normal growth; ± low growth; conditions: Example 3, carbon source 100%
Description: as §1, with “tolerance” for “degradation”, “40” for “(20”, “g,” for “g, 12 g, 4 g, and 0 g, respectively),”, “C., 25 mg, 50 mg, 125 mg, and” for “C.,”, “added, respectively,” for “added”, “ethylene oxide (100 mg/L, 200 mg/L, 500 mg/L, and 800 mg/L,” for “carbon source (50%, 30%, 10%, 0%,”
as §2, with “The purified bacteria having a potential for degrading” for “The”, “oxide” for “oxide-tolerant bacteria”, “ethylene oxide tolerance acclimatization” for “Ethylene Oxide Degradation Acclimatization”, “h,” for “h; a single colony having a largest radius was picked and preserved on an agar medium bevel containing corresponding nutritional components in Ethylene Oxide Degradation Acclimatization medium D,”, “oxide-tolerant bacteria.” for “oxide-degrading strains.”, “tolerance” for “degradation”

In the case of Lactobacillus, the “EO (400 mg/L)/C (0%) Degradation rate (%) After Acc.” value ([1]; EO 400 mg/L, strain after acclimatization) is reported as 75.96%, the “EO (400 mg/L)/C (0%) Degradation rate (%) Before Acc.” value ([1]; EO 400 mg/L, strain before acclimatization) is reported as 17.32% and the “EO (800 mg/L)/C (0%) Degradation rate (%) After Acc.” value ([1]; EO 800 mg/L, strain after acclimatization) is reported as 64.83%. The “EO (800 mg/L)/C (0%) Degradation rate (%) Before Acc.” value ([1]; EO 800 mg/L, strain before acclimatization) was 6.89%, the “Growth, EO (800 mg/L)/ C (%) 0 %” value ([2]; Example 3, carbon source 0%) was “+” and the “Growth, EO (800 mg/L)/ C (%) 10 %” value ([2]; Example 3, carbon source 10%) was “+”. For the same substance, the “Growth, EO (800 mg/L)/ C (%) 30 %” value ([2]; Example 3, carbon source 30%) was “+”, the “Growth, EO (800 mg/L)/ C (%) 50 %” value ([2]; Example 3, carbon source 50%) was “+” and the “Growth, C (100%)/EO(mg/L) 100” value ([3]; EO 100 mg/L) was “+”. For the same substance, the “Growth, C (100%)/EO(mg/L) 200” value ([3]; EO 200 mg/L) was “+”, the “Growth, C (100%)/EO(mg/L) 500” value ([3]; EO 500 mg/L) was “+” and the “Growth, C (100%)/EO(mg/L) 800” value ([3]; EO 800 mg/L) was “+”.
